Laboratory results taken from patent US6369058B1 (New Millennium Pharmaceutical Research Inc., priority 1999, dated 2002).

What was measured:
[1] = Absorption of folic acid from the nasal cavity of rats (in vivo technique, spectrophotometric assay of nasal washings); conditions: rat, intranasal 0.1 ml of folic acid solution (50 mg/10 ml, pH 8.3), nasal cavity washed with 3 ml water
Description: Rats were fasted overnight prior to experimentation. Surgical procedures were performed under equithesin anesthesia (3 ml/kg, i.p.). An incision was made in the neck of each rat, and the trachea cannulated with polyethylene tubing (PF-260). A closed end tube was inserted through the esophagus to the posterior part of the nasal cavity to prevent drug from entering the esophagus. The nasopalatine passage was closed with an adhesive agent to prevent drainage of the drug from the nasal cavity to the mouth.
The solution was filtered. The final pH was 8.3.
The washings were placed in a spectrophotometer cell and the absorbance was measured.

[2] = in vivo; cited from earlier work

Structure (SMILES)	Concentration of folic acid in the nasal cavity ([1]; time 0 min)	Concentration of folic acid in the nasal cavity ([1]; time 2 min)	Concentration of folic acid in the nasal cavity ([1]; time 5 min)	Concentration of folic acid in the nasal cavity ([1]; time 15 min)	Patients with abdominal cramping, nausea, vomiting, and diarrhea [2]	Patients with elevation of serum transaminases (hepatotoxicity) [2]
Nc1nc(=O)c2nc(CNc3ccc(C(=O)NC(CCC(=O)O)C(=O)O)cc3)cnc2[nH]1 [folic acid, N-[4-[[(2-Amino-1,4-dihydro-4-oxo-6-pteridinyl)methly]amino]benzoyl]-L-glutamic acid]	4.1 mg %	3.8 mg %	2.9 mg %	2.6 mg %		
Nc1c2c(nc3ccccc13)CCCC2 [tacrine, 1,2,3,4-tetrahydro-9-aminoacridine]					up to one-third	up to 20 % of patients
